Reference: patent US4374980A, “3'-Deamino-3'-morpholino carminomycin” (Zaidan Hojin Biseibutsu Kagaku Kenkyu Kai, priority 1981, dated 1983)
≈ marks a conversion by molar mass, not a printed value.

What was measured:
leukemic cells L1210 [1] = assay: Inhibition of RNA synthesis (14C-uridine incorporation) in cultivated leukemic cells L1210 of mice; type: cell-based; details: Mus musculus, L1210, 1 h, 60 minutes, 37° C., RPMI 1640, 10% calf serum
Procedure: (§1) (A) Activity of inhibiting growth, DNA synthesis and RNA synthesis of cultivated leukemic cells L1210 of mice.
(§2) Separately, the above cultivated cells L1210 were suspended in a concentration of 1×10^5 /ml in an RPMI 1640 medium containing 10% of calf serum, and cultivated for 1 to 2 hours in an incubator containing carbon dioxide gas at 37° C. Then, 3'-deamino-3'-morpholino-carminomycin was added in various concentrations,and 15 minutes later, ^14 C-uridine (0.05 μCi/ml) and ^14 C-thymidine (0.05 μCi/ml) were added. Thus, the cells were cultivated at 37° C. for 60 minutes. A 10% aqueous solution of trichloroacetic acid was added to the reaction liquor to stop the reaction and simultaneously precipitate an acid-insoluble matter. The acid-insoluble matter was washed three times with a 10-5% aqueous solution of trichloroacetic acid, and then dissolved in formic acid. The radioactivity of the acid-insoluble matter was measured. From the ratio of incorporated radiation to that of a control group, the concentrations which inhibited radiation by 50% were measured.

[2] = Acute toxicity by oral administration on CDF1 mouse; details: in vivo
Source text: (C) Acute toxicity by oral administration on CDF1 mouse.

[3] = tested on: Bacillus cereus ATCC 10702; assay: Minimum inhibitory concentration by broth dilution method; type: cell-based; details: ATCC10702
Source text: (§3) To illustrate such activity, minimum inhibitory concentrations (as determined by the broth dilution method) of the compound against several bacteria are shown in the Table below.

[4] = tested on: Micrococcus flavus FDA 16; assay: as above; type: cell-based; details: FDA16
Source text: as §3

Staph. aureus Smith = assay: as above; type: cell-based; details: Staphylococcus aureus
Source text: as §3

Staph. aureus FDA 209P = assay: as above; type: cell-based; details: Staphylococcus aureus, FDA209P
Source text: as §3

[5] = tested on: Bacillus subtilis NRRL B-558; assay: as above; type: cell-based; details: NRRLB558
Source text: as §3

[6] = tested on: Pseudomonas aeruginosa A3; assay: as above; type: cell-based
Source text: as §3

Sarcina lutea PCI 1001 = assay: as above; type: cell-based; details: Micrococcus luteus, PCI1001
Source text: as §3

[7] = tested on: Corynebacterium bovis 1810; assay: as above; type: cell-based
Source text: as §3

leukemic cells L1210 [8] = assay: Antitumor activity on CDF1 mouse leukemia induced by leukemic cells L1210; type: in vivo, CDF1 mice; details: 10 consecutive days
Procedure: (B) Antitumor activitiy on CDF1 mouse leukemia induced by leukemic cells L1210 of mice.
Leukemic cells L1210 of mice were intraperitoneally transplanted in an amount of 1×10^5 per mouse in CDF1 mice. Starting 24 hours after the transplantation, 3'-deamino-3'-morpholino-carminomycin was intraperitoneally or orally administered to the mice for 10 consecutive days. The survival rate (T/C, %) was calculated in comparison with a control group (to which physiological saline was administered).

leukemic cells L1210 [9] = assay: Inhibition of growth of cultivated leukemic cells L1210 of mice; type: cell-based; details: for IC50: Mus musculus, growth, RPMI 1640, 20% calf serum, 37° C.
Procedure: as §1
For example, L1210 cells were inoculated in a concentration of 5×10^4 /ml in an RPMI 1640 culture medium containing 20% calf serum (Rosewell Memorial Park Institute 1640), and simultaneously 3'-deamino-3'-morpholino-carminomycin was added in various concentrations. Thus, the cells were cultivated in an incubator containing carbon dioxide gas at 37° C. The 50% growth inhibitory concentration with respect to a control group was determined.

leukemic cells L1210 [10] = assay: Inhibition of DNA synthesis (14C-thymidine incorporation) in cultivated leukemic cells L1210 of mice; type: cell-based; details: Mus musculus, L1210, 1 h, 60 minutes, 37° C., RPMI 1640, 10% calf serum
Procedure: as §1, §2

P-388 leukemia = details: vs P-388 leukemia in mice; reported in U.S. Pat. No. 4,301,277; cited from earlier work

With CC(=O)[C@]1(O)Cc2c(O)c3c(c(O)c2[C@@H](O[C@H]2C[C@H](N4CCOCC4)[C@H](O)[C@H](C)O2)C1)C(=O)c1c(O)cccc1C3=O [3'-Deamino-3'-morpholino-carminomycin] the IC50 (leukemic cells L1210 [1]) was 0.013 µg/mL (≈ 0.0223 µM), the LD50 [2] was 1.56 mg/kg and the MIC [3] was 0.78 µg/mL (≈ 1.34 µM). The MIC [4] was 1.56 µg/mL (≈ 2.67 µM), the MIC (Staph. aureus Smith) was 6.25 µg/mL (≈ 10.7 µM) and the MIC (Staph. aureus FDA 209P) was 0.78 µg/mL (≈ 1.34 µM). The MIC [5] was 1.56 µg/mL (≈ 2.67 µM), the MIC [6] was > 100 µg/mL and the MIC (Sarcina lutea PCI 1001) was 0.78 µg/mL (≈ 1.34 µM). The MIC [7] was 0.39 µg/mL (≈ 0.668 µM), the “T/C % of the survival period” value (leukemic cells L1210 [8]; i.p., 0.39 μg/mouse/day) was 94% and the “T/C % of the survival period” value (leukemic cells L1210 [8]; i.p., 0.78 μg/mouse/day) was 122%. The “T/C % of the survival period” value (leukemic cells L1210 [8]; i.p., 1.56 μg/mouse/day) was 94%, the “T/C % of the survival period” value (leukemic cells L1210 [8]; i.p., 3.125 μg/mouse/day) was 122% and the “T/C % of the survival period” value (leukemic cells L1210 [8]; i.p., 6.25 μg/mouse/day) was 122%. The “T/C % of the survival period” value (leukemic cells L1210 [8]; i.p., 12.5 μg/mouse/day) was 194%, the “toxicity (footnote *)” value (leukemic cells L1210 [8]; i.p., 12.5 μg/mouse/day) was “Toxic” and the “T/C % of the survival period” value (leukemic cells L1210 [8]; p.o., 0.39 μg/mouse/day) was 100%. For the same compound, the “T/C % of the survival period” value (leukemic cells L1210 [8]; p.o., 0.78 μg/mouse/day) was 111%, the “T/C % of the survival period” value (leukemic cells L1210 [8]; p.o., 1.56 μg/mouse/day) was 106% and the “T/C % of the survival period” value (leukemic cells L1210 [8]; p.o., 3.125 μg/mouse/day) was 133%. For the same compound, the “T/C % of the survival period” value (leukemic cells L1210 [8]; p.o., 6.25 μg/mouse/day) was 167%, the “T/C % of the survival period” value (leukemic cells L1210 [8]; p.o., 12.5 μg/mouse/day) was 206% and the IC50 (leukemic cells L1210 [9]; L1210, 24 h, 1 day, read-out: IC50 growth, 1 day after) was 0.01 µg/mL (≈ 0.0171 µM). For the same compound, the IC50 (leukemic cells L1210 [9]; L1210, 48 h, 2 days, read-out: IC50 growth, 2 days after) was 0.0009 µg/mL (≈ 0.00154 µM), the “inhibition of growth and nucleic acid synthesis (in words)” value (leukemic cells L1210 [9]; cultivated L1210 cells of mice) was “markedly inhibit the growth and nucleic acid synthesis” and the IC50 (leukemic cells L1210 [10]) was 0.09 µg/mL (≈ 0.154 µM).

In the case of COc1cccc2c1C(=O)c1c(O)c3c(c(O)c1C2=O)C[C@@](O)(C(=O)CO)C[C@@H]3O[C@H]1C[C@H](N2CCOCC2)[C@H](O)[C@H](C)O1 [3'-deamino-3'-morpholino-adriamycin, 3'-Deamino-3'-morpholino-adriamycin], the “antitumor potency relative to adriamycin and daunomycin starting materials” value (P-388 leukemia) is listed as “significantly greater antitumor potency”.

In the case of COc1cccc2c1C(=O)c1c(O)c3c(c(O)c1C2=O)C[C@@](O)(C(C)=O)C[C@@H]3O[C@H]1C[C@H](N2CCOCC2)[C@H](O)[C@H](C)O1 [3'-deamino-3'-morpholino-daunomycin, 3'-Deamino-3'-morpholinodaunomycin], the “antitumor potency relative to adriamycin and daunomycin starting materials” value (P-388 leukemia) is given as “significantly greater antitumor potency”.
